Results as given in PMC9226124, “Macrocycle-stabilization of its interaction with 14-3-3 increases plasma membrane localization and activity of CFTR” (Nature Communications, 2022).
“And” between values parts separate entries of the source, which are not always exact repeats. Equal values may be shown once. Read-outs that look alike come from different tables or passages of the source.

Tests used:
[1] = target: T1, 14-3-3β/CFTRpS753pS768 complex (Homo sapiens, UniProt P13569+P31946); test: Dose-response fluorescence polarization (FP) assay, compound titration; format: binding; settings: for EC50: 14-3-3β 10 μM, labeled CFTRpS753pS768 100 nM; for FP signal: With 14-3-3; for Polarization, background subtracted: 14-3-3 10 μM, peptide 100 nM, replicates
T1 construct: His6 (cleaved yes); made in house; peptide synthetic
Procedure: The 14-3-3β concentration used for the FP screening assay was 10 μM (dashed line). c HTS FP assay of the Cyclenium library. The samples contain 100 nM of FITC-CFTR_pS753pS768 peptide, 10 μM 14-3-3β, and 50 μM compound. FC-A (100 µM) was added as a positive control and DMSO as the negative control. Hit compounds are defined as a polarization increase which is higher than 20% of the response of FC-A. Red squares are compounds that appeared positive in the negative control without 14-3-3. […] Background polarization was subtracted from all values, n = 3 technical replicates. Compounds selected for further analysis are indicated with an asterisk. e Polarization in the absence of 14-3-3. […] Source data are provided as a Source Data file. […]
The FITC-labeled peptides were dissolved in FP buffer (10 mM HEPES pH 7.4, 150 mM NaCl, 0.1% Tween20, 1 mg/mL BSA) to a final concentration of 100 nM or 10 nM. For the dose-response assays, a 14-3-3β concentration of 10 μM was used while titrating the compounds in a two-times dilution series and, for the other assays, a dilution series of 14-3-3β was made with constant concentration of compound. The dilution series were made in 384 Corning Black Round Bottom well plates and their polarization was measured with a Tecan Infinite F500 plate reader (ex. = 485 nm, em. = 535 nm). The method of fitting of the curves was: “log(agonist) vs. response – Variable slope (four parameters)” from GraphPad Prism. The equation is Y = Bottom + (Top-Bottom)/(1 + 10^((LogEC50-X)*HillSlope)).

[2] = target: T2, 3HA-tagged F508del-CFTR in BHK cells (Homo sapiens, UniProt P13569, DEL508-508); test: CFTR trafficking assay (surface expression); format: cell-based, hamster; settings: for F508del-CFTR trafficking towards the plasma membrane: BHK cells, 24 h, 10 μM compound; for F508del-CFTR surface expression signal (Fig5a): individual replicates
T2 construct: expressed in transfected cells; host or cells: baby hamster kidney (BHK) cells (Carlile et al. 2007)
Procedure: Twelve (12) validated hit compounds from the initial screening and focused validation library were tested for their effect on F508del-CFTR trafficking. Baby hamster kidney (BHK) cells expressing 3HA-tagged F508del-CFTR were treated for 24 h with 10 μM compound. After fixation of the cells, a combination of mouse monoclonal anti-HA antibody and anti-mouse IgG conjugated with FITC was used to detect F508del-CFTR that had trafficked to the plasma membrane as described previously. […] Additionally, a fluorescence imaging plate reader (FLIPR) Membrane Potential (FMP) assay was performed. This assay measures real-time membrane potential changes associated with ion channel activation and ion transporter proteins. F508del-CFTR expressing BHK cells were incubated for 24 h with 20 μM compound before treatment with the potentiator genistein, FMP dye, and activator forskolin. The fluorescence intensity is thus a measure for the function of the CFTR protein in the plasma membrane of these cells. The F508del-CFTR corrector VX-809 (lumacaftor) and the triple combination Trikafta® were used as positive controls in this assay. […] Another cellular assay was performed with the Ussing Chamber, which detects and quantifies transport of ions across epithelial tissue. F508del-CFTR expressing cystic fibrosis epithelial (CFBE) cells were treated for 18 h with 20 μM CY007424. After forskolin and genistein stimulation, the short-circuit current of the cells was measured.
Fig. 5 Cellular activity of macrocycles stabilizing the 14-3-3/CFTR PPI. a Surface expression of 3HA-tagged F508del-CFTR in BHK cells incubated for 24 h with 10 μM compound and treated with mouse monoclonal anti-HA antibody and anti-mouse IgG conjugated with FITC (n = 4 or n = 3 biological replicates, bars represent the mean). b, c FLIPR Membrane Potential (FMP) assay of F508del-CFTR expressing BHK cells treated for 24 h with the macrocycles (b, n = 6 biological replicates, bars represent the mean) or with CY007424 and/or VX-809 or Trikafta®, with and without CFTR inhibitor INH172 (c, n = 4 biological replicates, bars represent the mean). d Using chamber experiment of F508del-CFTR expressing CFBE cells treated for 18 h with CY007424, VX-809, or Trikafta® or in combinations. CFTR activity is assayed by measurement of short-circuit current of cells after stimulation by forskolin and the potentiator genistein (n = 3 or n = 6 biological replicates, bars represent the mean). Source data are provided as a Source Data file.
The trafficking assay was performed as previously described by Carlile et al.[21]. In brief, 3HA-tagged F508del-CFTR expressing baby hamster kidney (BHK) cells (cells earlier described by Carlile et. al. 2007)[21] were seeded in 96-well plates (Corning half area, black-sided, clear bottom) at 15,000 cells per well. After 24 h incubation at 37 °C, the cells were treated with 10 μM of compound for 24 h (final DMSO concentration 1% v/v). The cells were fixated with 4% paraformaldehyde, washed with PBS, and then blocked with fetal bovine serum (5% in PBS). Mouse monoclonal anti-HA antibody (H9658 Sigma, 1:150 dilution in PBS) was incubated overnight, and, after three washes with PBS, the background fluorescence was measured in a plate reader (488 nm excitation, 510 nm emission). The secondary antibody anti-mouse IgG conjugated with FITC (F5262 Sigma, 1:100 dilution in PBS) was incubated for 1 h, the cells were washed three times with PBS and analyzed in the plate reader again. Background fluorescence was subtracted from the signal, after which the signal was normalized to the DMSO control and wt-CFTR expressing cells.

T2 sequence (P13569 with tags, fused parts or gaps DEL508-508): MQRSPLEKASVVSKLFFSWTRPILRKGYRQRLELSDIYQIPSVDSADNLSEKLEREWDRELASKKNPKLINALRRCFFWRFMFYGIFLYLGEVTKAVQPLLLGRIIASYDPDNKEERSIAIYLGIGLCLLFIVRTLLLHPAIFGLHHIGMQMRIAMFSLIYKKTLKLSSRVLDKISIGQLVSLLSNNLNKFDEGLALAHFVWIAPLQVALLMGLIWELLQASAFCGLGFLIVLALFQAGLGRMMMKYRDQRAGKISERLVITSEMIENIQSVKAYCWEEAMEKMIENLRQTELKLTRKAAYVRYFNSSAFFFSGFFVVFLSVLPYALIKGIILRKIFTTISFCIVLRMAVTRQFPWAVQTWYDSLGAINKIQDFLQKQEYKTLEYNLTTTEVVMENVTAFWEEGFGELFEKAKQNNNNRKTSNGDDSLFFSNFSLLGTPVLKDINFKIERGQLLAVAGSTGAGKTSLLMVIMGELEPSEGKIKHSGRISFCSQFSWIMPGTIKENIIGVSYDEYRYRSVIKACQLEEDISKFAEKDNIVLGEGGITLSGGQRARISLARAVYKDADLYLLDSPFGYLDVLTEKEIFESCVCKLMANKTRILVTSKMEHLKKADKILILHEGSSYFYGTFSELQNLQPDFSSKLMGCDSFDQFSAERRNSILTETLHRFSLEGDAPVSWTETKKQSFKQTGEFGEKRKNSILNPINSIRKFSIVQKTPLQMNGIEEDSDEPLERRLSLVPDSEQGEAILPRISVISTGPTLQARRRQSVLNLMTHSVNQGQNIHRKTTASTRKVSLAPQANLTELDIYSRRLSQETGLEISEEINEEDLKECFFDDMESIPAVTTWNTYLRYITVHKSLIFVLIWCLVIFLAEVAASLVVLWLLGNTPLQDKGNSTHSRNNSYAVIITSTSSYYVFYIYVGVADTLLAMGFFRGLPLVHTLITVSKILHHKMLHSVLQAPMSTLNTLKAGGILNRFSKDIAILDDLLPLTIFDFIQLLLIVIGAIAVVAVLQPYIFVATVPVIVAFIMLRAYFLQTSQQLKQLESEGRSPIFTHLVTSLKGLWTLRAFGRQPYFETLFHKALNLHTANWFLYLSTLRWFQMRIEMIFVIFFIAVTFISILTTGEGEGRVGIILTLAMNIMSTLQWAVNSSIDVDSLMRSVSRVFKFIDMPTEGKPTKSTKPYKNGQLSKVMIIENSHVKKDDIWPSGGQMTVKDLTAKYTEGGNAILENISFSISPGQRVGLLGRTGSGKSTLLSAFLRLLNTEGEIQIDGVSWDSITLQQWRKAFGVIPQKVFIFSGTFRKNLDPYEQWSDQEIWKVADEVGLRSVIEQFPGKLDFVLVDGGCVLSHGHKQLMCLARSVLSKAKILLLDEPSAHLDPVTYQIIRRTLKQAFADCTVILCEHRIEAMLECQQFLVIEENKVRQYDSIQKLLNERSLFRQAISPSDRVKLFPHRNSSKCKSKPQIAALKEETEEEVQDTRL
T1 sequence (P31946 whole entry): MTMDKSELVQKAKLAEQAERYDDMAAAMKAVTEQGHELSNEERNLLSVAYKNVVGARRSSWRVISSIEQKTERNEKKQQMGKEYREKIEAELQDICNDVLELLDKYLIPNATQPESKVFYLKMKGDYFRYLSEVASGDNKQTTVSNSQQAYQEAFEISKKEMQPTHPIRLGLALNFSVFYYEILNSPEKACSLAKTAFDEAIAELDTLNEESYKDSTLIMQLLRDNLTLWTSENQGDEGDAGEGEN
T1 sequence (P13569 747-774 limits assumed): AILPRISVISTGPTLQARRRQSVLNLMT

SMILES	FP signal ([1]; compound 476.8 pM)	FP signal ([1]; compound 953.7 pM)	FP signal ([1]; compound 1.90735e-9 M)	FP signal ([1]; compound 3.8147e-9 M)	FP signal ([1]; compound 7.6294e-9 M)	FP signal ([1]; compound 1.52588e-8 M)	FP signal ([1]; compound 3.05176e-8 M)	FP signal ([1]; compound 6.10352e-8 M)	FP signal ([1]; compound 1.2207e-7 M)	FP signal ([1]; compound 2.44141e-7 M)	FP signal ([1]; compound 4.88281e-7 M)	FP signal ([1]; compound 9.76563e-7 M)	FP signal ([1]; compound 1.95313e-6 M)	FP signal ([1]; compound 3.90625e-6 M)	FP signal ([1]; compound 7.8125e-6 M)	FP signal ([1]; compound 1.5625e-5 M)	FP signal ([1]; compound 3.125e-5 M)	FP signal ([1]; compound 6.25e-5 M)	FP signal ([1]; compound 0.000125 M)	FP signal ([1]; compound 0.00025 M)	other results
NCCCCC1NCc2ccccc2Sc2ccccc2CNC(=O)C(Cc2cccc(Cl)c2)NC(=O)C(Cc2ccc(O)cc2)NC1=O (stereo not shown) [CY007288]	6	6	5	4	7	6	5	4	4	5	6	6	5	8	9	16	30	55	97	149	EC50 [1]: False positive; FP signal ([1]; compound 0.0005 M): 194; FP signal ([1]; compound 0.001 M): 224; F508del-CFTR surface expression signal (Fig5a) [2]: 916.74 and 800.091 and 871.094 and 781.005
C=CC(C)(C)OC[C@H]1O[C@H](O[C@@H]2C3=C([C@H](C)COC(C)=O)C[C@H](O)[C@]3(C)/C=C3/[C@@H](COC)CC[C@H]3[C@@H](C)[C@H]2O)[C@H](O)[C@@H](OC(C)=O)[C@@H]1O [FC-A, fusicoccin A, reference compound]	1	5	0	3	3	2	2	1	1	2	4	5	6	15	23	37	53	70	91	104	EC50 ([1]; read-out: EC50): 69.7 µM; FP signal ([1]; compound 0.0005 M): 116; FP signal ([1]; compound 0.001 M): 133; Polarization, background subtracted ([1]; compound 7.8125e-7 M): 8.267 (2×) and 9.167; Polarization, background subtracted ([1]; compound 1.5625e-6 M): 13.6667 (2×) and 15.2667; Polarization, background subtracted ([1]; compound 3.125e-6 M): 22.4667 and 22.7667 and 24.2667; Polarization, background subtracted ([1]; compound 6.25e-6 M): 35.6667 and 36.6667 (2×); Polarization, background subtracted ([1]; compound 1.25e-5 M): 51.9667 and 52.3667 and 53.1667; Polarization, background subtracted ([1]; compound 2.5e-5 M): 71.5667 and 71.6667 and 72.5667; Polarization, background subtracted ([1]; compound 5e-5 M): 88.8667 and 90.2667 and 89.8667; Polarization, background subtracted ([1]; compound 0.0001 M): 104.867 and 104.367 and 104.267; F508del-CFTR surface expression signal (Fig5a) [2]: 1016.54 and 1064.51 and 1045.89

Further lines, with some results ahead:

FP signal ([1]; compound 476.8 pM)	FP signal ([1]; compound 953.7 pM)	FP signal ([1]; compound 1.90735e-9 M)	FP signal ([1]; compound 3.8147e-9 M)	FP signal ([1]; compound 7.6294e-9 M)	FP signal ([1]; compound 1.52588e-8 M)	FP signal ([1]; compound 3.05176e-8 M)	FP signal ([1]; compound 6.10352e-8 M)	FP signal ([1]; compound 1.2207e-7 M)	FP signal ([1]; compound 2.44141e-7 M)	FP signal ([1]; compound 4.88281e-7 M)	FP signal ([1]; compound 9.76563e-7 M)	FP signal ([1]; compound 1.95313e-6 M)	FP signal ([1]; compound 3.90625e-6 M)	FP signal ([1]; compound 7.8125e-6 M)	FP signal ([1]; compound 1.5625e-5 M)	FP signal ([1]; compound 3.125e-5 M)	FP signal ([1]; compound 6.25e-5 M)	FP signal ([1]; compound 0.000125 M)	FP signal ([1]; compound 0.00025 M)	SMILES	other results
4	5	5	7	4	7	6	5	5	7	7	7	6	12	27	52	122	193	244	263	N=C(N)NCCCC1NCc2ccccc2Sc2ccccc2CNC(=O)C(Cc2ccc(O)cc2)NC(=O)C(CCCN)NC1=O (stereo not shown) [CY007424]	EC50 ([1]; read-out: EC50): 36.1 µM and 36 µM; FP signal ([1]; compound 0.0005 M): 257; FP signal ([1]; compound 0.001 M): 271; F508del-CFTR trafficking towards the plasma membrane [2]: strongest increase; F508del-CFTR surface expression signal (Fig5a) [2]: 1698.78 and 1774.35 and 1725.92 and 1889.17
3	3	4	4	3	5	4	5	4	4	5	6	6	6	7	9	16	33	73	143	N=C(N)NCCCC1NC(=O)C(CCCCN)NCc2ccccc2Sc2ccccc2CNC(=O)C(Cc2ccc(O)cc2)NC1=O (stereo not shown) [CY001951]	EC50 ([1]; read-out: EC50): 267 µM; FP signal ([1]; compound 0.0005 M): 201; FP signal ([1]; compound 0.001 M): 252; F508del-CFTR surface expression signal (Fig5a) [2]: 85.2534 and 218.237 and 180.048 and 282.523
4	5	5	6	4	6	3	5	8	6	5	5	6	7	7	9	18	35	83	142	CN1CC(=O)NC(CCCNC(=N)N)C(=O)NC(CCC(N)=O)C(=O)NC(CCCNC(=N)N)C(=O)NCc2ccccc2-c2cccc(c2)C1 (stereo not shown) [CY007491]	EC50 ([1]; read-out: EC50): 244 µM; FP signal ([1]; compound 0.0005 M): 193; FP signal ([1]; compound 0.001 M): 240; F508del-CFTR trafficking towards the plasma membrane [2]: increase of F508del-CFTR trafficking towards the plasma membrane; F508del-CFTR surface expression signal (Fig5a) [2]: 1616.06 and 1494.72 and 1508.75 and 1545.64
